Assay results published in US20120121692A1, “COMPOUNDS AND COMPOSITIONS COMPRISING CDK INHIBITORS AND METHODS FOR TREATING CANCER” (SHANDONG UNIVERSITY, priority 2009, published 2012).
Like-named read-outs stand apart in the source and are kept apart here.

Assays:
[1] = test system: HCT116 cells; assay: MTT cytotoxicity screening, human colon cancer cell line HCT116; type: cell-based; details: Homo sapiens
Text: Human colon cancer cell line HCT116 can be used for the preliminary cytotoxicity screening of the disclosed compounds as disclosed by Mosmann, T., “Rapid colorimetric assay for cellular growth and survival: application to proliferation and cytotoxicity assays.” J. Immunol. Methods, (1983) 65(1-2): p. 55-63 referred to herein further as the “MTT test” which is incorporated herein by reference in its entirety.
The disclosure of Mosmann recites the following. “MTT 93-(4,5-dimethylthirazol-2-yl)-2,5-diphenyl tetrazolium bromide; Sigman catalog no. M2128) was dissolved in PBS at 5 mg/ml and filtered to sterilize and remove a small amount of insoluble residue present in some batches of MTT. At the times indicated below, stock MTT solution (10 ml per 100 ml) was added to all wells of an assay, and plates were incubated at 37° C. for 4 h. Acid-siopropanol (100 ml of 0.04 N HCl in isopropanol) was added to all wells and mixed thoroughly to dissolve the dark blue crystals. After a few minutes at room temperature to ensure that all crystals were dissolved, the plates were read o a Dynatech MR580Microelisa reader, using a test wavelength of 570 nm, a reference wavelength of 630 nm, and a calibration setting of 1.99 (or 1.0 if the samples were strongly colored). Plates were normally read within 1 h of adding the isopropanol.
“Our final procedure was to add 0.01 ml MTT (5 mg/ml in phosphate-buffered saline) to 0.1 ml cells in growth medium. After 4 h at 37° C. for MTT cleavage, the formazan product was solublilized by the addition of 0.1 ml 0.04 N HCl in isopropanol. Optical density was measured on a Dynatech MR 580 plate reader, using a reference wavelength of 630 nm and a test wavelength of 570 nm.” 3-(4,5-Dimethylthiazol-2-yl)-2,5-diphenyltetrazolium bromide, a tetrazole, can pass through cellular membrane to enter into cells. This tetrazole may be reduced to the purple formazan in the mitochondria of living cells, which can diffuse out to form crystals. This crystal can be dissolved in the dimethyl sulfoxide to form a colored solution. The absorbance of this colored solution can be quantified by measuring at certain wavelength (490 nm) using a spectrophotometer. The quantity of the formazan crystal is proportional to the number of living cells.
As used herein, cells were cultured in McCoy's 5A medium supplemented with 10% heat-inactivated Fetal Bovine Serum (FBS) and 5% Penicillin/Streptomycin solution. McCoy's 5A, 1× (Iwakata & Grace modified) medium with L-Glutamine, DPBS, 1× w/o Ca and Mg, Penicillin/Streptomycin solution, Trypsin EDTA, 1× and PBS, 1× w/o Ca and Mg were purchased from Mediatech, Inc. (USA). FBS was purchased from Hyclone (USA).
The cytotoxicity of the compounds was estimated using the MTT assay. A 96-well plate was seeded with 100 μl medium containing HCT116 cells in suspension at a density of 2.5×10^4 cells/ml. After 24 hours of incubation, the cells were treated with the compounds, which were dissolved in DMSO (dimethyl sulfoxide) as stock solutions and diluted to final concentrations of 100 μM, 50 μM, 25 μM, 12.5 μM, 6.25 μM & 1 μM (for compounds tested in the micromolar concentrations) and 10 μM, 1 μM, 500 nM, 250 nM, 125 nM & 62.5 nM (for compounds tested in the nanomolar concentration range) using medium containing 0.1% DMSO. The final concentration of DMSO in the culture medium was maintained at 0.1%-0.001% (v/v). After 48 hrs incubation in the presence of test compounds, the spent medium was removed and the wells were washed twice with 100 μL of PBS solution. 100 μL of fresh medium and 10 μL of MTT (5 mg/ml in PBS) was added to the wells and incubated at 37° C. in dark for 4 hrs. The formazan product was dissolved by adding 100 μL of 100% DMSO after removing the medium from each well and was stabilized by adding 12.5 μL of Sorensen's glycine buffer to each well. […]

[2] = HCT-116, 48 hrs incubation, absorbance 490 nm, primary screening, read-out: IC50
[3] = HCT-116, further evaluated after secondary screening (Table VIII), read-out: IC50 value

Question: Which IC50 [1, 2] does the source give for COc1cc(OC)c(C2=CCN(C)CC2)c(O)c1C(=O)/C=C/c1ccc(N(C)C)cc1 [Compound A14, (E)-3-(4-dimethylaminophenyl)-1-(2-hydroxy-4,6-dimethoxy-3-(1-methyl-1,2,3,6-tetrahydropyridine-4-yl)phenyl)-2-propylene-1-one] here?
Answer: The IC50 was 30.5 µM.

Question: And the melting point?
Answer: The melting point was 176 to 177 °C.

Question: For COc1cc(OC)c(C2=CCN(C)CC2)c(O)c1C(=O)/C=C/c1ccc(Br)cc1 [Compound A13, (E)-3-(4-bromophenyl)-1-(2-hydroxy-4,6-dimethoxy-3-(1-methyl-1,2,3,6-tetrahydropyridine-4-yl)phenyl)-2-propylene-1-one], which IC50 [1, 2] is on record?
Answer: The IC50 was 8.76 µM.

Question: What about the melting point of the same molecule?
Answer: Its melting point is 164 to 165 °C.

Question: Which results are given for COc1cc(OC)c(C2=CCN(C)CC2)c(O)c1C(=O)/C=C/c1ccco1 [Compound E1, (E)-3-(furan-2-yl)-1-(2-hydroxy-4,6-dimethoxy-3-(1-methyl-1,2,3,6-tetrahydro-pyridine-4-yl)phenyl)-2-propylene-1-one]?
Answer: IC50 [1, 2]: 10.2 µM; melting point: 145 to 146 °C

Question: What does the source list for COc1cc(OC)c(C(=O)/C=C/c2ccc(C)cc2)c(O)c1CN1CCOCC1 [Compound D1, (E)-1-(2-hydroxy-4,6-dimethoxy-3-(morpholin-4-ylmethyl)phenyl)-3-(4-methylphenyl)-2-propylene-1-one]?
Answer: IC50 [1, 2]: 14.8 µM; melting point: 126 to 127 °C

Question: What does the source list for Cc1ccc(-c2cc(=O)c3c(O)cc(O)c(C4=CCN(C)CC4)c3o2)cc1 [Compound G3, 5,7-hydroxy-8-(1-methyl-1,2,3,6-tetrahydropyridin-4-yl)-2-(4-methylphenyl)-4H-chromen-4-one]?
Answer: IC50 [1, 2]: 3.42 µM; melting point: 160 to 161 °C

Question: With COc1cccc(/C=C/C(=O)c2c(OC)cc(OC)c(CN3CCOCC3)c2O)c1 [Compound D6, (E)-3-(3-methoxyphenyl)-1-(2-hydroxy-4,6-dimethoxy-3-(morpholinemethyl)-phenyl)-2-propylene-1-one] as the molecule, how does the IC50 [1, 2] read?
Answer: The IC50 was 2.17 µM.

Question: What about the melting point of the same molecule?
Answer: The melting point was 169 to 170 °C.

Question: Which results are given for COc1cc(OC)c(C2=CCN(C)CC2)c(O)c1C(=O)/C=C/c1ccc(C)cc1 [Compound A9, (E)-1-(2-hydroxy-4,6-dimethoxy-3-(1-methyl-1,2,3,6-tetrahydropyridine-4-yl)phenyl)-3-(4-methylphenyl)-2-propylene-1-one]?
Answer: IC50 [1, 2]: 3.87 µM; melting point: 150 to 151 °C

Question: Which IC50 [1, 2] does the source give for COc1cc(OC)c(C2=CCNCC2)c(O)c1C(=O)/C=C/c1ccccc1 [Compound B1, 1-(2-hydroxy-4,6-dimethoxy-3-(1,2,3,6-tetrahydropyridine-4-yl)phenyl)-3-phenyl-2-propylene-1-one] here?
Answer: Its IC50 is 8.41 µM.

Question: And the IC50 [1, 3]?
Answer: The IC50 was ~0.1 µM.

Question: What about the melting point of the same molecule?
Answer: The melting point was 118 to 120 °C.

Question: With COc1ccc(/C=C/C(=O)c2c(OC)cc(OC)c(CN3CCOCC3)c2O)cc1 [Compound D2, (E)-1-(2-hydroxy-4,6-dimethoxy-3-(morpholin-4-ylmethyl)phenyl)-3-(4-methoxyphenyl)-2-propylene-1-one] as the molecule, how does the IC50 [1, 2] read?
Answer: Its IC50 is 21.4 µM.

Question: What about the melting point of the same molecule?
Answer: The melting point was 159 to 160 °C.

Question: With COc1cc(OC)c(C2=CCNCC2)c(O)c1C(=O)/C=C/c1cccc(Cl)c1 [Compound B7, (E)-3-(3-chlorophenyl)-1-(2-hydroxy-4,6-dimethoxy-3-(1,2,3,6-tetrahydropyridine-4-yl)phenyl)-2-propylene-1-one] as the molecule, how does the IC50 [1, 2] read?
Answer: Its IC50 is 9.97 µM.

Question: What about the melting point of the same molecule?
Answer: Its melting point is 102 to 103 °C.

Question: Which IC50 [1, 2] does the source give for COc1cc(OC)c2c(=O)cc(-c3ccc(C)cc3)oc2c1C1=CCN(C)CC1 [Compound F3, 5,7-dimethoxy-8-(1-methyl-1,2,3,6-tetrahydropyridin-4-yl)-2-(4-methylphenyl)-4H-chromen-4-one] here?
Answer: The IC50 was 21.1 µM.

Question: And the melting point?
Answer: The melting point was 113 to 114 °C.

Question: Which results are given for COc1cccc(/C=C/C(=O)c2c(OC)cc(OC)c(C3=CCN(C)CC3)c2O)c1OC [Compound A4, (E)-3-(2,3-dimethoxyphenyl)-1-(2-hydroxy-4,6-dimethoxy-3-(1-methyl-1,2,3,6-tetrahydropyridine-4-yl)phenyl)-2-propylene-1-one]?
Answer: IC50 [1, 2]: 5.22 µM; IC50 [1, 3]: > 1 µM; melting point: 171 to 172 °C

Question: What does the source list for COc1ccc(-c2cc(=O)c3c(OC)cc(OC)c(C4=CCN(C)CC4)c3o2)cc1 [Compound F4, 5,7-dimethoxy-8-(1-methyl-1,2,3,6-tetrahydropyridin-4-yl)-2-(4-methoxyphenyl)-4H-chromen-4-one]?
Answer: IC50 [1, 2]: 17.3 µM; melting point: 179 to 181 °C

Question: With COc1cc(/C=C/C(=O)c2c(OC)cc(OC)c(C3=CCN(C)CC3)c2O)cc(OC)c1OC [Compound A17, (E)-1-(2-hydroxy-4,6-dimethoxy-3-(1-methyl-1,2,3,6-tetrahydropyridine-4-yl)phenyl)-3-(3,4,5-trimethoxyphenyl)-2-propylene-1-one] as the molecule, how does the IC50 [1, 2] read?
Answer: Its IC50 is 18.4 µM.

Question: What about the melting point of the same molecule?
Answer: Its melting point is 156 to 158 °C.

Question: What does the source list for COc1cc(OC)c(C2=CCNCC2)c(O)c1C(=O)/C=C/c1ccco1 [Compound E2, (E)-3-(furan-2-yl)-1-(2-hydroxy-4,6-dimethoxy-3-(1,2,3,6-tetrahydropyridin-4-yl)phenyl)-2-propylene-1-one]?
Answer: IC50 [1, 2]: 11.1 µM; melting point: 119 to 120 °C

Question: With COc1cc(OC)c(C(=O)/C=C/c2cccc(Cl)c2)c(O)c1CN1CCCCC1 [Compound C4] as the molecule, how does the IC50 [1, 2] read?
Answer: The IC50 was 3.87 µM.

Question: What about the melting point of the same molecule?
Answer: Its melting point is 134 to 135 °C.

Question: For Cc1cccc(-c2cc(=O)c3c(O)cc(O)c(C4=CCN(C)CC4)c3o2)c1 [Compound G2, 5,7-hydroxy-8-(1-methyl-1,2,3,6-tetrahydropyridin-4-yl)-2-(3-methylphenyl)-4H-chromen-4-one], which IC50 [1, 2] is on record?
Answer: The IC50 was 3.65 µM.

Question: And the melting point?
Answer: The melting point was 179 to 180 °C.

Question: Which IC50 [1, 2] does the source give for COc1ccc(/C=C/C(=O)c2c(OC)cc(OC)c(C3=CCN(C)CC3)c2O)c(OC)c1OC [Compound A16, (E)-1-(2-hydroxy-4,6-dimethoxy-3-(1-methyl-1,2,3,6-tetrahydropyridine-4-yl)phenyl)-3-(2,3-4-trimethoxyphenyl)-2-propylene-1-one] here?
Answer: The IC50 was 3.31 µM.

Question: What about the melting point of the same molecule?
Answer: The melting point was 145 to 147 °C.

Question: What does the source list for COc1cc(OC)c(C(=O)/C=C/c2cccc(Cl)c2)c(O)c1CN1CCOCC1 [Compound D5, (E)-3-(3-chlorophenyl)-1-(2-hydroxy-4,6-dimethoxy-3-(morpholinemethyl)phenyl)-2-propylene-1-one]?
Answer: IC50 [1, 2]: 2.8 µM; melting point: 135 to 136 °C

Question: Which IC50 [1, 2] does the source give for COc1cc(OC)c(C2=CCNCC2)c(O)c1C(=O)/C=C/c1ccc(Br)cc1 [Compound B13, (E)-3-(4-bromophenyl)-1-(2-hydroxy-4,6-dimethoxy-3-(1,2,3,6-tetrahydropyridine-4-yl)phenyl)-2-propylene-1-one] here?
Answer: The IC50 was 18.2 µM.

Question: What about the melting point of the same molecule?
Answer: Its melting point is 120 to 121 °C.

Question: Which results are given for COc1cc(OC)c(C2=CCN(C)CC2)c(O)c1C(=O)/C=C/c1ccc(C#N)cc1 [Compound A15, (E)-3-(4-cyanophenyl)-1-(2-hydroxy-4,6-dimethoxy-3-(1-methyl-1,2,3,6-tetrahydropyridine-4-yl)phenyl)-2-propylene-1-one]?
Answer: IC50 [1, 2]: 13.3 µM; melting point: 125 to 126 °C

Question: What does the source list for COc1cccc(-c2cc(=O)c3c(OC)cc(OC)c(C4=CCN(C)CC4)c3o2)c1OC [Compound F6, 5,7-dimethoxy-8-(1-methyl-1,2,3,6-tetrahydropyridin-4-yl)-2-(2,3-dimethoxy-phenyl)-4H-chromen-4-one]?
Answer: IC50 [1, 2]: 61.3 µM; melting point: 195 to 196 °C

Question: With COc1cc(OC)c(C(=O)/C=C/c2ccco2)c(O)c1CN1CCCCC1 [Compound E31, (E)-3-(furan-2-yl)-1-(2-hydroxy-4,6-dimethoxy-3-(piperidine-1-ylmethyl)phenyl)-2-propylene-1-one] as the molecule, how does the IC50 [1, 2] read?
Answer: The IC50 was 8.52 µM.

Question: And the melting point?
Answer: The melting point was 95 to 96 °C.
